US12492186B2, “Bicyclic heterocyclic compounds useful as IRAK4 inhibitors” (BRISTOL-MYERS SQUIBB COMPANY, priority 2019, dated 2025)

Experiments:
[1] = biological target: IRAK4 (Homo sapiens (Human), UniProt Q9NWZ3); test: IRAK4 Inhibition Assay; assay type: biochemical; conditions: ATP 500 μM; IRAK4 0.6 nM; 60 min room temperature; Caliper LABCHIP 3000
[2] = tested on: Human whole blood; test: IRAK4 Whole Blood Assay (IL-6 levels after stimulation with TLR2 agonist lipoteichoic acid); assay type: cell-based; conditions: 10 μg/mL lipoteichoic acid, 5 hours
Procedure: Human whole blood containing the anti-coagulant ACD-A was plated in 384-well plate (25 μL/well) and incubated with compounds for 60 minutes at 37° C. in a 5% CO2 incubator. The blood was stimulated with a TLR2 agonist, 10 μg/mL final concentration of lipoteichoic acid (Invivogen, San Diego, CA) in 25 μL RPMI (Gibco) for 5 hours in a 5% CO2 incubator. At the end of the incubation, plates were centrifuged at 2300 rpm for 5 minutes. Supernatants were harvested and analyzed for IL-6 levels by Flow Cytometry beads assay (BD Biosciences, San Jose, CA).

Sequence of IRAK4 (Q9NWZ3 whole entry, species assumed): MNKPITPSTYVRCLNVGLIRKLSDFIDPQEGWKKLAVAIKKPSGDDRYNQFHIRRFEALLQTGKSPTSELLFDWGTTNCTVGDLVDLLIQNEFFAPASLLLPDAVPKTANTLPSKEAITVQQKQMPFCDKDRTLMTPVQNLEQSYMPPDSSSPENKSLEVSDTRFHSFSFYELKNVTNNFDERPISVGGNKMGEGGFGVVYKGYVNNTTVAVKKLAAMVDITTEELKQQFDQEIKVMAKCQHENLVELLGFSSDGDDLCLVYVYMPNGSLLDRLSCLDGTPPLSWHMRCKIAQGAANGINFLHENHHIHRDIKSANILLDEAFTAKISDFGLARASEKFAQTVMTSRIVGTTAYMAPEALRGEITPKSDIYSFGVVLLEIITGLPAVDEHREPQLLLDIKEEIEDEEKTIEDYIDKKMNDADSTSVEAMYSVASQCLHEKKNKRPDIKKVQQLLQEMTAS

Row | IC50 [1] [nM] | EC50 [2] [nM] | Structure (SMILES)
1 | 6 | 1890 | CC(C)Nc1c(-c2cn(CC3CC3)nn2)cnc2ccc(-c3cn[nH]c3)cc12 [Example 130, 3-(1-(cyclopropylmethyl)-1H-1,2,3-triazol-4-yl)-N-isopropyl-6-(1H-pyrazol-4-yl) quinolin-4-amine]
2 | 4.7 | 556 | CC(C)Nc1c(C(=O)NCC2CCS(=O)(=O)C2)nnc2ccc(-c3cn[nH]c3)cc12 (stereo not shown) [Example 159, N-((1,1-dioxidotetrahydrothiophen-3-yl)methyl)-4-(isopropylamino)-6-(1H-pyrazol-4-yl)cinnoline-3-carboxamide]
3 | 4.8 | 137 | CC(O)CCNC(=O)c1cnc2ccc(-c3cn[nH]c3)nc2c1NC(C)C (stereo not shown) [Example 140, N-(3-hydroxybutyl)-4-(isopropylamino)-6-(1H-pyrazol-4-yl)-1,5-naphthyridine-3-carboxamide]
4 | 2.7 | 2090 | CC(C)Nc1c(C(=O)NCCN2CCS(=O)(=O)CC2)nnc2ccc(-c3cn[nH]c3)cc12 [Example 160, N-(2-(1,1-dioxidothiomorpholino)ethyl)-4-(isopropylamino)-6-(1H-pyrazol-4-yl)cinnoline-3-carboxamide]
5 | 1.4 | 40 | CC(C)Nc1c(C(=O)NC[C@@H](F)C(C)(C)O)cnc2ccc(-c3cn[nH]c3)nc12 [Example 141, (R)—N-(2-fluoro-3-hydroxy-3-methylbutyl)-4-(isopropylamino)-6-(1H-pyrazol-4-yl)-1,5-naphthyridine-3-carboxamide]
6 | 2.9 | 799 | CC(=O)N1CC(n2cc(-c3cnc4ccc(-c5cn[nH]c5)cc4c3NC(C)C)nn2)C1 [Example 132, 1-(3-(4-(4-(isopropylamino)-6-(1H-pyrazol-4-yl)quinolin-3-yl)-1H-1,2,3-triazol-1-yl)azetidin-1-yl)ethan-1-one]
7 | 15 | 2260 | CCOCCNC(=O)c1cnc2ccc(-c3cn[nH]c3)cc2c1NC(C)C [Example 10, N-(2-ethoxyethyl)-4-(isopropylamino)-6-(1H-pyrazol-4-yl)quinoline-3-carboxamide]
8 | 4.2 | 607 | CC(C)Nc1c(C(=O)NCCc2cccnc2)cnc2ccc(-c3cn[nH]c3)cc12 [Example 98, 4-(isopropylamino)-6-(1H-pyrazol-4-yl)-N-(2-(pyridin-3-yl)ethyl)quinoline-3-carboxamide]
9 | 3.2 | 1180 | CC1(Nc2c(C(=O)NCCN3CCS(=O)(=O)CC3)cnc3ccc(-c4cn[nH]c4)cc23)CC1 [Example 119, N-(2-(1,1-dioxidothiomorpholino)ethyl)-4-((1-methylcyclopropyl)amino)-6-(1H-pyrazol-4-yl)quinoline-3-carboxamide]
10 | 3.1 | 603 | CC(=O)N1CCC(n2cc(-c3cnc4ccc(-c5cn[nH]c5)cc4c3NC(C)C)nn2)CC1 [Example 135, 1-(4-(4-(4-(isopropylamino)-6-(1H-pyrazol-4-yl)quinolin-3-yl)-1H-1,2,3-triazol-1-yl)piperidin-1-yl)ethan-1-one]
11 | 2.7 | 272 | CC(C)CCNC(=O)c1cnc2ccc(-c3cn[nH]c3)nc2c1NC(C)C [Example 139, N-isopentyl-4-(isopropylamino)-6-(1H-pyrazol-4-yl)-1,5-naphthyridine-3-carboxamide]
12 | 2.9 | 779 | CC(C)Nc1c(-c2cn(C3CCNCC3)nn2)cnc2ccc(-c3cn[nH]c3)cc12 [Example 133, N-isopropyl-3-(1-(piperidin-4-yl)-1H-1,2,3-triazol-4-yl)-6-(1H-pyrazol-4-yl)quinolin-4-amine]
13 | 4.3 | 2730 | CC(C)Nc1c(C(=O)NCCC2CCS(=O)(=O)CC2)cnc2ccc(-c3cn[nH]c3)cc12 [Example 112, N-(2-(1,1-dioxidotetrahydro-2H-thiopyran-4-yl)ethyl)-4-(isopropylamino)-6-(1H-pyrazol-4-yl) quinoline-3-carboxamide]
14 | 9.8 | 544 | CC(C)(O)[C@H](F)CNC(=O)c1cnc2ccc(-c3cn[nH]c3)cc2c1NC1COC1 [Example 34, (R)—N-(2-fluoro-3-hydroxy-3-methylbutyl)-4-(oxetan-3-ylamino)-6-(1H-pyrazol-4-yl)quinoline-3-carboxamide]
15 | 13 | 1320 | CCOC(=O)N1CCC(NC(=O)c2cnc3ccc(-c4cn[nH]c4)cc3c2NC(C)C)CC1 [Example 80, ethyl 4-(4-(isopropylamino)-6-(1H-pyrazol-4-yl)quinoline-3-carboxamido)piperidine-1-carboxylate]
16 | 11 | 2720 | CC(C)Nc1c(C(=O)NCCCn2ccnc2)cnc2ccc(-c3cn[nH]c3)cc12 [Example 103, N-(3-(1H-imidazol-1-yl)propyl)-4-(isopropylamino)-6-(1H-pyrazol-4-yl)quinoline-3-carboxamide]

Row | IC50 [1] [nM] | EC50 [2] [nM] | Structure (SMILES)
17 | 5.7 | 618 | CC(C)Nc1c(C(=O)NC2CCN(S(C)(=O)=O)CC2)cnc2ccc(-c3cn[nH]c3)cc12 [Example 79, 4-(isopropylamino)-N-(1-(methylsulfonyl)piperidin-4-yl)-6-(1H-pyrazol-4-yl) quinoline-3-carboxamide]
18 | 10.8 | 3150 | O=C(NCCCc1ccncc1)c1cnc2ccc(-c3cn[nH]c3)cc2c1NC1CC1 [Example 118, 4-(cyclopropylamino)-6-(1H-pyrazol-4-yl)-N-(3-(pyridin-4-yl)propyl)quinoline-3-carboxamide]
19 | 17.1 | 1170 | CC(C)Nc1c(C(=O)NC2CCN(S(=O)(=O)c3cccnc3)CC2)cnc2ccc(-c3cn[nH]c3)cc12 [Example 84, 4-(isopropylamino)-6-(1H-pyrazol-4-yl)-N-(1-(pyridin-3-ylsulfonyl)piperidin-4-yl)quinoline-3-carboxamide]
20 | 13.7 | 759 | CC(O)CCNC(=O)c1cnc2ccc(-c3cn[nH]c3)cc2c1NC(C)C (stereo not shown) [Example 36, N-(3-hydroxybutyl)-4-(isopropylamino)-6-(1H-pyrazol-4-yl)quinoline-3-carboxamide]
21 | 3.3 | 1280 | COC(=O)N[C@H]1CC[C@H](NC(=O)c2cnc3ccc(-c4cn[nH]c4)cc3c2NC(C)C)CC1 [Example 25, methyl ((1r,4r)-4-(4-(isopropylamino)-6-(1H-pyrazol-4-yl)quinoline-3-carboxamido)cyclohexyl)carbamate]
22 | 9.5 | 2240 | CC(C)Nc1c(C(=O)NCCN2CCS(=O)(=O)CC2)cnc2ccc(-c3cn[nH]c3)cc12 [Example 94, N-(2-(1,1-dioxidothiomorpholino)ethyl)-4-(isopropylamino)-6-(1H-pyrazol-4-yl) quinoline-3-carboxamide]
23 | 1.6 | 802 | CC(C)Nc1c(C(=O)NC[C@@H](F)C(C)(C)O)nnc2ccc(-c3cn[nH]c3)cc12 [Example 158, (R)—N-(2-fluoro-3-hydroxy-3-methylbutyl)-4-(isopropylamino)-6-(1H-pyrazol-4-yl) cinnoline-3-carboxamide]
24 | 4.9 | 5190 | O=C(NCCN1CCS(=O)(=O)CC1)c1cnc2ccc(-c3cn[nH]c3)cc2c1NC1CC1 [Example 117, 4-(cyclopropylamino)-N-(2-(1,1-dioxidothiomorpholino)ethyl)-6-(1H-pyrazol-4-yl)quinoline-3-carboxamide]
25 | 2.5 | 396 | CC(C)Nc1c(C(=O)NCCC2(O)CC(F)(F)C2)cnc2ccc(-c3cn[nH]c3)cc12 [Example 42, N-(2-(3,3-difluoro-1-hydroxycyclobutyl)ethyl)-4-(isopropylamino)-6-(1H-pyrazol-4-yl)quinoline-3-carboxamide]
26 | 18.5 | 1520 | CC(C)Nc1c(C(=O)NCCS(C)(=O)=O)cnc2ccc(-c3cn[nH]c3)cc12 [Example 88, 4-(isopropylamino)-N-(2-(methylsulfonyl)ethyl)-6-(1H-pyrazol-4-yl)quinoline-3-carboxamide]
27 | 7.7 | 584 | CC(=O)N[C@H]1CC[C@H](NC(=O)c2cnc3ccc(-c4cn[nH]c4)cc3c2NC(C)C)CC1 [Example 24, N-((1r,4r)-4-acetamidocyclohexyl)-4-(isopropylamino)-6-(1H-pyrazol-4-yl)quinoline-3-carboxamide]
28 | 11.4 | 1280 | CC(C)Nc1c(C(=O)NCCC2CCCN2)cnc2ccc(-c3cn[nH]c3)cc12 (stereo not shown) [Example 96, 4-(isopropylamino)-6-(1H-pyrazol-4-yl)-N-(2-(pyrrolidin-2-yl)ethyl)quinoline-3-carboxamide]
29 | 16.8 | 1360 | CC(C)Nc1c(C(=O)NC2CCN(Cc3ccncc3)CC2)cnc2ccc(-c3cn[nH]c3)cc12 [Example 78, 4-(isopropylamino)-6-(1H-pyrazol-4-yl)-N-(1-(pyridin-4-ylmethyl)piperidin-4-yl)quinoline-3-carboxamide]
30 | 4 | 285 | CC(C)Nc1c(C(=O)NCCN2CCOCC2)cnc2ccc(-c3cn[nH]c3)nc12 [Example 144, 4-(isopropylamino)-N-(2-morpholinoethyl)-6-(1H-pyrazol-4-yl)-1,5-naphthyridine-3-carboxamide]
31 | 5.4 | 153 | CC(C)Nc1c(C(=O)NCCC(C)(C)N)cnc2ccc(-c3cn[nH]c3)nc12 [Example 150, N-(3-amino-3-methylbutyl)-4-(isopropylamino)-6-(1H-pyrazol-4-yl)-1,5-naphthyridine-3-carboxamide]
32 | 9.5 | 1670 | CC(C)Nc1c(C(=O)N[C@H]2CC[C@H](O)CC2)cnc2ccc(-c3cn[nH]c3)cc12 [Example 11, N-((1r,4r)-4-hydroxycyclohexyl)-4-(isopropylamino)-6-(1H-pyrazol-4-yl)quinoline-3-carboxamide]
